The text below walks through data of US20110294721A1, “ANTIMICROBIAL PEPTIDES” (priority 2008, published 2011).

For orientation: MIC means the smallest concentration in the dilution series that meets the test's criterion for growth inhibition. The low end stands for inhibition by little substance, the high end for a need for much substance.

Holding throughout (conditions): Table 2; for LC (lethal concentration): 100% inhibition after at least 4 days of incubation; for MIC: >90% inhibition, 1-2 days at 25° C.
The subject of assay [1] is Pseudomonas syringae pv. syringae. Put plainly: MIC and lethal concentration (LC) assay (Example 3). The class given is cell-based. As for the experimental part: (§1) In-vitro inhibition assays were performed in sterile flat-bottom 96-well plates (Greiner bio-one, Frickenhausen). Antimicrobial peptides were dissolved in 0.01% acetic acid containing 0.2% BSA (500 μg/ml), filter sterilized and stored at −20° C. For inhibition assays dilutions of peptides ranging from 5 to 200 μg/ml were prepared and 10 μl (antibacterial assay) or 20 μl (antifungal assay) of each concentration was loaded per well.
(§2) Bacteria colonies from overnight agar plate cultures were resuspended into 5 ml LB-medium or HPG-medium (OD600 nm=0.08-0.1) and diluted into LB-medium/HPG-medium (1:100). 90 μl of this suspension containing about 10^5-10^6 CFU/ml of tested bacteria were added to each well resulting in final peptide concentrations of 0, 0.5, 1, 2, 5, 10, and 20 μg/ml. […] The lowest concentration, in which there is no observable growth (>90% inhibition) is referred to as minimal inhibitory concentration (MIC). […] For each peptide concentration two identical inhibition assays were performed.

For assay [2], the system named is Pseudomonas syringae pv. tomato. The description is as above. It counts as cell-based. The method, then:
as §1, §2

The subject of assay [3] is Pectobacterium carotovorum. Described as above. It counts as cell-based. As for the experimental part: as §1, §2
The subject of assay [4] is Xanthomonas vesicatoria. The description is as above. It counts as cell-based. The method, then:
as §1, §2

Assay [5] concerns Clavibacter michiganensis. The assay is described as above. It counts as cell-based. The method, then:
as §1, §2

In assay [6] the test system is Pseudomonas corrugata. The method, then: as §1, §2

Where “and” joins values, the source holds several entries; their conditions need not be identical. Identical values can stand only once. No end group written: not given here.

As for KRRILIRILKLIIKLILKKR-NH2 [SP13-5], the “LC (lethal concentration)” value in assay [1] was >10/>10 μg/ml; in assay [2] it was 5.0 µg/mL; in assay [3] it was >10/>10 μg/ml; in assay [4], 5.0 µg/mL; in assay [5] it was greater than 10 µg/mL; in assay [6] it was 10/>10 μg/ml. The minimum inhibitory concentration (MIC) in assay [1] was >10/>10 μg/ml; in assay [2], 2.5 µg/mL; in assay [3], >10/>10 μg/ml; in assay [4] it was 1.0 µg/mL; in assay [5], 2.5 µg/mL; in assay [6], 10/>10 μg/ml.
Turning to KRRKAIKILKLIAKLIRKKR-NH2 [SP13-8], the “LC (lethal concentration)” value in assay [1] was >10/>10 μg/ml; in assay [2], 10/>10 μg/ml; in assay [3], >10/>10 μg/ml; in assay [4] it was 0.5 µg/mL; in assay [5], 0.25 µg/mL; in assay [6], 0.5 µg/mL. Besides, the MIC in assay [1] is >10/>10 μg/ml; in assay [2], 10/>10 μg/ml; in assay [3] it was >10/>10 μg/ml; in assay [4], 0.1 µg/mL; in assay [5], 0.1 µg/mL; in assay [6] it was 0.25 µg/mL.
Consider KRRKLAFRAFRFALKAVLKK-NH2 [SP13-13], for which the “LC (lethal concentration)” value in assay [1] was 0.5/0.5 μg/ml; in assay [2] it was 5.0 µg/mL; in assay [3], >10/>10 μg/ml; in assay [4] it was 0.5 µg/mL; in assay [5], 2.5 µg/mL; in assay [6], 1.0 µg/mL. Besides, the minimal inhibitory concentration (MIC) is 0.5/0.5 μg/ml in assay [1]; 2.5 µg/mL in assay [2]; >10/>10 μg/ml in assay [3]; 0.25 µg/mL in assay [4]; 0.5 µg/mL in assay [5]; 0.25 µg/mL in assay [6].
With KRRKLIKILKLIAKLIRKKR-NH2 [SP13-7], the “LC (lethal concentration)” value was >10/>10 μg/ml in assay [1]; 10/>10 μg/ml in assay [2]; >10/>10 μg/ml in assay [3]; 0.25 µg/mL in assay [4]; 0.5 µg/mL in assay [5]; 2.5 µg/mL in assay [6]. Further, the MIC is >10/>10 μg/ml in assay [1]; 10/>10 μg/ml in assay [2]; >10/>10 μg/ml in assay [3]; 0.1 µg/mL in assay [4]; 0.25 µg/mL in assay [5]; 0.5 µg/mL in assay [6].
With KRRKLIKILKLIIKLIRKKR-NH2 [SP13-6], the “LC (lethal concentration)” value in assay [1] is 2.5 µg/mL; in assay [2], 5.0 µg/mL; in assay [3], >10/>10 μg/ml; in assay [4], 0.5 µg/mL; in assay [5], 1.0 µg/mL. For the same substance, the MIC in assay [1] was 1.0 µg/mL; in assay [2], 2.5 µg/mL; in assay [3] it was >10/>10 μg/ml; in assay [4], 0.1 µg/mL; in assay [5], 0.1 µg/mL; in assay [6], 2.5 µg/mL.
Take KRRLALFRAFRLALKSVLKK-NH2 [SP13-10]: the “LC (lethal concentration)” value is >10/>10 μg/ml in assay [1]; 1.0/1.0 μg/ml in assay [2]; >10/>10 μg/ml in assay [3]; 0.25 µg/mL in assay [4]; 0.25 µg/mL in assay [5]; 0.5 µg/mL in assay [6]. For the same substance, the minimal inhibitory concentration (MIC) in assay [1] was >10/>10 μg/ml; in assay [2], 1.0/1.0 μg/ml; in assay [3], >10/>10 μg/ml; in assay [4], 0.1 µg/mL; in assay [5] it was 0.1 µg/mL; in assay [6], 0.25 µg/mL.
Consider KRRLFLFRLFRLFLRLFLKK-NH2 [SP13-12], for which the “LC (lethal concentration)” value in assay [1] was >10/>10 μg/ml; in assay [2] it was greater than 10 µg/mL; in assay [3], >10/>10 μg/ml; in assay [4], 5.0 µg/mL; in assay [5] it was 5.0 µg/mL; in assay [6] it was 10/>10 μg/ml. Further, the minimum inhibitory concentration (MIC) in assay [1] is >10/>10 μg/ml; in assay [2], 5.0 µg/mL; in assay [3], >10/>10 μg/ml; in assay [4] it was 2.5 µg/mL; in assay [5], 2.5 µg/mL; in assay [6], 10/>10 μg/ml.
In the case of KRRLIARILRLAIRALVKKR-NH2 [SP13-1], the “LC (lethal concentration)” value in assay [1] is 2.5 µg/mL; in assay [2] it was 5.0 µg/mL and > 10 µg/mL; in assay [3], >10//>10 μg/ml; in assay [4], 1.0 µg/mL; in assay [5], 2.5 µg/mL; in assay [6] it was 2.5/2.5 μg/ml. Moreover, the minimum inhibitory concentration (MIC) is 1.0 µg/mL in assay [1]; 1.0 µg/mL in assay [2]; >10//>10 μg/ml in assay [3]; 0.5 µg/mL in assay [4]; 0.5 µg/mL in assay [5]; 2.5/2.5 μg/ml in assay [6].
For the substance KRRLIFRILKLFFRFLVKKR-NH2 [SP13-4], the “LC (lethal concentration)” value is 10/>10 μg/ml in assay [1]; >10/>10 μg/ml in assay [2]; >10/>10 μg/ml in assay [3]; 2.5/2.5 μg/ml in assay [4]; 2.5 µg/mL in assay [5]; greater than 10 µg/mL in assay [6]. In addition, the minimal inhibitory concentration (MIC) is 10/>10 μg/ml in assay [1]; >10/>10 μg/ml in assay [2]; >10/>10 μg/ml in assay [3]; 2.5/2.5 μg/ml in assay [4]; 1.0 µg/mL in assay [5]; 5.0 µg/mL in assay [6].
In the case of KRRLILRILRLAIRALVKKR-NH2 [SP13-2], the “LC (lethal concentration)” value is 10 µg/mL in assay [1]; 10/>10 μg/ml in assay [2]; >10/>10 μg/ml in assay [3]; 0.5 µg/mL in assay [4]; 1.0 µg/mL in assay [5]; 5.0/5.0 μg/ml in assay [6]. The MIC in assay [1] was 5.0 µg/mL; in assay [2], 10/>10 μg/ml; in assay [3] it was >10/>10 μg/ml; in assay [4], 0.25 µg/mL; in assay [5], 0.25 µg/mL; in assay [6], 5.0/5.0 μg/ml.
